IC50 data for 28 compounds are collected here from US8772304B2, “Benzimidazole inhibitors of leukotriene production” (Boehringer Ingelheim International GmbH, priority 2010, dated 2014).

For experiment [1], the target named is recombinant human FLAP protein (Homo sapiens (Human), UniProt P20292). Put plainly: FLAP binding assay (Scintillation Proximity Assay, displacement of iodinated FLAP inhibitor). The following applies: displacement of [125I]L-691,831; membranes of sf9 cells expressing recombinant human FLAP; read-out: hFLAP binding IC50. The method, then: Compounds are assessed for the ability to bind to FLAP in a binding assay that measures compound-specific displacement of an iodinated (^125I) FLAP inhibitor via a Scintillation Proximity Assay format (adapted from S. Charleson et al., Mol. Pharmacol., 1992, 41, 873-879).
Cell pellets produced from sf9 insect cells expressing recombinant human FLAP protein are resuspended in buffer A [15 mM Tris-HCl (pH 7.5), 2 mM MgCl2, 0.3 mM EDTA, 1 mM PMSF]. The cells are lysed with a Dounce homogenizer and the material is centrifuged at 10,000×g for 10 minutes. The supernatant is then collected and centrifuged at 100,000×g for 60 minutes. To prepare membrane protein for an assay, an aliquot of the 100,000×g pellet is resuspended in 1 ml of buffer A, Dounce homogenized, and finally subjected to polytron mixing (30 seconds). Membrane protein (25 μl, 5 μg) is mixed with WGA SPA beads (Amersham) and stirred for 1 h. […] (final concentrations: beads, 200 μg/well; protein, 5 μg/well; [^125I] probe, 0 08 nM/well (17 nCi/well). The plates are shaken for 2 h before reading on a Microbeta plate reader. Non-specific binding is determined by the addition of 10 μM cold L-691,831 compound.
For orientation: SPA uses beads or plates that emit light when radiolabelled molecules are held near them.

Experiment [2] has as its system synthesis of LTB4 in human whole blood. As to the kind of experiment: human whole blood LTB4 production inhibition assay. In kind it is cell-based. The following applies: heparinized human whole blood, calcimycin 20 μM stimulation, plasma LTB4; read-out: hWB IC50. The method, then:
Compounds are additionally tested in a human whole blood assay to determine their ability to inhibit the synthesis of LTB4 in a cellular system. Compounds are combined with heparinized human whole blood and incubated for 15 minutes at 37° C. Calcimycin (20 μM final, prepared in phosphate-buffered saline, pH 7.4) is then added and the mixture is incubated for another 30 minutes at 37° C. The samples are centrifuged for 5 min at low speed (1500×g) and the plasma layer is removed. Plasma LTB4 concentrations are then measured using an antibody-based homogenous time-resolved fluorescence method (CisBio, Bedford, Mass.).

Sequence of recombinant human FLAP protein (P20292 whole entry): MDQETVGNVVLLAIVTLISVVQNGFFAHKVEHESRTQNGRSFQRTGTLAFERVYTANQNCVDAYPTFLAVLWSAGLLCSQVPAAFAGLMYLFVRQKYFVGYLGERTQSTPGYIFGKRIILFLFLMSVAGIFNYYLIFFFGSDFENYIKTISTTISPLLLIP

One may read the IC50 as the point on the concentration scale where inhibition reaches its midpoint. On to `CC(C)(C)n1c(-c2cccc(F)n2)nc2cc(-c3cnc(N)nc3)ccc21` [Example 14, 5-[1-tert-Butyl-2-(6-fluoro-pyridin-2-yl)-1H-benzimidazol-5-yl]-pyrimidin-2-ylamine], for which the IC50 in experiment [1] was 279 nM.

For the compound `CC(C)(C)n1c(-c2ccncc2)nc2cc(-c3cnc(N)nc3)ccc21` [Example 18, 5-(1-tert-Butyl-2-pyridin-4-yl-1H-benzimidazol-5-yl)-pyrimidin-2-ylamine], the IC50 in experiment [2] was found to be 449 nM; in experiment [1], 450 nM.

Turning to `Cc1ccc(-c2nc3cc(-c4cnc(N)nc4)ccc3n2C(C)(C)C)c(-n2cncn2)n1` [Example 28, 5-[1-tert-Butyl-2-(6-methyl-2-1,2,4-triazol-1-yl-pyridin-3-yl)-1H-benzimidazol-5-yl]-pyrimidin-2-ylamine], the half-inhibitory concentration (IC50) in experiment [2] came to 194 nM; in experiment [1], 17 nM.

For `CC(C)(C)n1c(-c2ccccn2)nc2cc(-c3cnc(N)nc3)ccc21` [Example 12, 5-(1-tert-Butyl-2-pyridin-2-yl-1H-benzimidazol-5-yl)-pyrimidin-2-ylamine], the IC50 in experiment [1] amounted to 700 nM.

Consider `CC(C)(C)n1c(-c2cccc(F)n2)nc2cc(-c3cnc(NCc4cccc(F)n4)nc3)ccc21` [Example 15, {5-[1-tert-Butyl-2-(6-fluoro-pyridin-2-yl)-1H-benzimidazol-5-yl]-pyrimidin-2-yl}-(6-fluoro-pyridin-2-ylmethyl)-amine], for which the half-maximal inhibitory concentration (IC50) in experiment [1] was 870 nM.

For the compound `Cc1ncnn1-c1ccc(C#N)nc1-c1nc2cc(-c3cnc(N)nc3)ccc2n1C(C)(C)C` [Example 3, 6-[5-(2-Amino-pyrimidin-5-yl)-1-tert-butyl-1H-benzimidazol-2-yl]-5-(5-methyl-1,2,4-triazol-1-yl)-pyridine-2-carbonitrile], the IC50 in experiment [2] is 89 nM; in experiment [1], 5.9 nM.

`CC(C)(C)n1c(-c2cccnc2)nc2cc(-c3cnc(N)nc3)ccc21` [Example 31, 5-(1-tert-Butyl-2-pyridin-3-yl-1H-benzimidazol-5-yl)-pyrimidin-2-ylamine]: in experiment [1], the IC50 worked out at 542 nM.

On to `Cc1ncn(-c2ncccc2-c2nc3cc(-c4cnc(N)nc4)ccc3n2C(C)(C)C)n1` [Example 25, 5-{1-tert-Butyl-2-[2-(3-methyl-1,2,4-triazol-1-yl)-pyridin-3-yl]-1H-benzimidazol-5-yl}-pyrimidin-2-ylamine], for which the IC50 in experiment [2] is 278 nM; in experiment [1], 12 nM.

Turning to `COc1cccc(-c2nc3cc(-c4cnc(N)nc4)ccc3n2C(C)(C)C)n1` [Example 11, 5-[1-tert-Butyl-2-(6-methoxy-pyridin-2-yl)-1H-benzimidazol-5-yl]-pyrimidin-2-ylamine], in experiment [1], the half-maximal inhibitory concentration (IC50) was 46 nM.

On to `Cc1ncn(-c2ccc(C#N)nc2-c2nc3cc(-c4cnc(N)nc4)ccc3n2C(C)(C)C)n1` [Example 2, 6-[5-(2-Amino-pyrimidin-5-yl)-1-tert-butyl-1H-benzimidazol-2-yl]-5-(3-methyl-1,2,4-triazol-1-yl)-pyridine-2-carbonitrile], for which the half-maximal inhibitory concentration (IC50) in experiment [2] is 36 nM; in experiment [1], 4.2 nM.

Consider `CCC(C)(C)n1c(-c2cc(Br)cnc2-n2cncn2)nc2cc(-c3cnc(N)nc3)ccc21` [Example 27, 5-[2-(5-Bromo-2-1,2,4-triazol-1-yl-pyridin-3-yl)-1-(1,1-dimethyl-propyl)-1H-benzimidazol-5-yl]-pyrimidin-2-ylamine], for which the IC50 turned out to be 667 nM in experiment [2] and 23 nM in experiment [1].

Take `CC(C)(C)n1c(-c2cccnc2-n2cncn2)nc2cc(-c3cnc(N)nc3)ccc21` [Example 20, 5-[1-tert-Butyl-2-(2-1,2,4-triazol-1-yl-pyridin-3-yl)-1H-benzimidazol-5-yl]-pyrimidin-2-ylamine]: the 50% inhibitory concentration (IC50) in experiment [2] worked out at 447 nM; in experiment [1], 19 nM.

With `CC(C)(C)n1c(-c2nc(C#N)ccc2-n2cncn2)nc2cc(-c3cnc(N)nc3)ccc21` [Example 1, 6-[5-(2-Amino-pyrimidin-5-yl)-1-tert-butyl-1H-benzimidazol-2-yl]-5-1,2,4-triazol-1-yl-pyridine-2-carbonitrile], the figures for the IC50 in experiment [2] and in experiment [1] were 30 nM and 7.1 nM, respectively.

Regarding `Cc1ncnn1-c1ccc(C#N)nc1-c1nc2cc(-c3cnc(N)nc3)ccc2n1C1(C)CCC1` [Example 6, 6-[5-(2-Amino-pyrimidin-5-yl)-1-(1-methyl-cyclobutyl)-1H-benzimidazol-2-yl]-5-(5-methyl-1,2,4-triazol-1-yl)-pyridine-2-carbonitrile], the IC50 in experiment [2] worked out at 894 nM; in experiment [1] it was 86 nM.

In the case of `COC(=O)c1cccnc1-c1nc2cc(-c3cnc(N)nc3)ccc2n1C(C)(C)C` [Example 7, 2-[5-(2-Amino-pyrimidin-5-yl)-1-tert-butyl-1H-benzimidazol-2-yl]-nicotinic acid methyl esler], the results for the IC50 in experiment [2] and in experiment [1] were 3100 nM and 540 nM, respectively.

Take `CC(C)(C)n1c(-c2ccc(N3CCOCC3)nc2)nc2cc(-c3cnc(N)nc3)ccc21` [Example 30, 5-[1-tert-Butyl-2-(6-morpholin-4-yl-pyridin-3-yl)-1H-benzimidazol-5-yl]-pyrimidin-2-ylamine]: the concentration for half-maximal inhibition (IC50) in experiment [1] is 180 nM.

On to `COc1ncccc1-c1nc2cc(-c3cnc(N)nc3)ccc2n1C(C)(C)C` [Example 32, 5-[1-tert-Butyl-2-(2-methoxy-pyridin-3-yl)-1H-benzimidazol-5-yl]-pyrimidin-2-ylamine], for which the IC50 in experiment [1] was 220 nM.

Consider `CC(C)(C)n1c(-c2cc(C#N)cnc2-n2cncn2)nc2cc(-c3cnc(N)nc3)ccc21` [Example 26, 5-[5-(2-Amino-pyrimidin-5-yl)-1-tert-butyl-1H-benzimidazol-2-yl]-6-1,2,4-triazol-1-yl-nicotinonitrile], for which the concentration for half-maximal inhibition (IC50) in experiment [2] amounted to 75 nM; in experiment [1], 10 nM.

For the compound `CCOc1ncccc1-c1nc2cc(-c3cnc(N)nc3)ccc2n1C(C)(C)C` [Example 33, 5-[1-tert-Butyl-2-(2-ethoxy-pyridin-3-yl)-1H-benzimidazol-5-yl]-pyrimidin-2-ylamine], the half-inhibitory concentration (IC50) in experiment [1] came to 34 nM.

As to `CC(C)(C)n1c(-c2cc(F)cnc2-n2cncn2)nc2cc(-c3cnc(N)nc3)ccc21` [Example 21, 5-[1-tert-Butyl-2-(5-fluoro-2-1,2,4-triazol-1-yl-pyridin-3-yl)-1H-benzimidazol-5-yl]-pyrimidin-2-ylamine], the IC50 is 253 nM in experiment [2] and 20 nM in experiment [1].

As to `CC(C)(C)n1c(-c2cc(Br)cnc2-n2cncn2)nc2cc(-c3cnc(N)nc3)ccc21` [Example 23, 5-[2-(5-Bromo-2-1,2,4-triazol-1-yl-pyridin-3-yl)-1-tert-butyl-1H-benzimidazol-5-yl]-pyrimidin-2-ylamine], the values for the IC50 in experiment [2] and in experiment [1] were 81 nM and 4 nM, respectively.

Take `CNC(=O)c1cccnc1-c1nc2cc(-c3cnc(N)nc3)ccc2n1C(C)(C)C` [Example 8, 2-[5-(2-Amino-pyrimidin-5-yl)-1-tert-butyl-1H-benzimidazol-2-yl]-N-methyl-nicotinamide]: the IC50 in experiment [2] came out at 1700 nM; in experiment [1], 620 nM.

With `COC(=O)c1ccc(C#N)nc1-c1nc2cc(-c3cnc(N)nc3)ccc2n1C(C)(C)C` [Example 9, 2-[5-(2-Amino-pyrimidin-5-yl)-1-tert-butyl-1H-benzimidazol-2-yl]-6-cyano-nicotinic acid methyl ester], the half-maximal inhibitory concentration (IC50) in experiment [2] was determined as 387 nM; in experiment [1] it was 110 nM.

Regarding `CC(C)(C)n1c(-c2nc(C3CC3)ccc2-n2cncn2)nc2cc(-c3cnc(N)nc3)ccc21` [Example 4, 5-[1-tert-Butyl-2-(6-cyclopropyl-3-1,2,4-triazol-1-yl-pyridin-2-yl)-1H-benzimidazol-5-yl]-pyrimidin-2-ylamine], the half-maximal inhibitory concentration (IC50) came to 140 nM in experiment [2] and 13 nM in experiment [1].

In the case of `Cc1ncnn1-c1ncccc1-c1nc2cc(-c3cnc(N)nc3)ccc2n1C(C)(C)C` [Example 24, 5-{1-tert-Butyl-2-[2-(5-methyl-1,2,4-triazol-1-yl)-pyridin-3-yl]-1H-benzimidazol-5-yl}-pyrimidin-2-ylamine], the half-maximal inhibitory concentration (IC50) stood at 242 nM in experiment [2] and 23 nM in experiment [1].

As for `COc1cncc(-c2nc3cc(-c4cnc(N)nc4)ccc3n2C(C)(C)C)c1` [Example 29, 5-[1-tert-Butyl-2-(5-methoxy-pyridin-3-yl)-1H-benzimidazol-5-yl]-pyrimidin-2-ylamine], the IC50 in experiment [1] was found to be 300 nM.

Take `CC(C)(C)Oc1cccc(-c2nc3cc(-c4cnc(N)nc4)ccc3n2C(C)(C)C)n1` [Example 13, 5-[2-(6-tert-Butoxy-pyridin-2-yl)-1-tert-butyl-1H-benzimidazol-5-yl]-pyrimidin-2-ylamine]: the half-maximal inhibitory concentration (IC50) in experiment [1] amounted to 51 nM.

With `COc1cccnc1-c1nc2cc(-c3cnc(N)nc3)ccc2n1C(C)(C)C` [Example 16, 5-[1-tert-Butyl-2-(3-methoxy-pyridin-2-yl)-1H-benzimidazol-5-yl]-pyrimidin-2-ylamine], in experiment [1], the IC50 is 960 nM.
